From patent US20050004016A1, “Method of obtaining peptides with tissue-specific activity and pharmaceutical compositions on their basis” (priority 2000, published 2005)
Residues, ends and D or L forms follow the SMILES beside them.

Columns and labels:
[1] = system: brain subcortical structure explants; test: Growth of brain subcortical structure explants (square index, organotypic culture); type: cell-based, chicken embryos; conditions: 100 ng/ml, control SI = 100%
Description: Experiments were conducted on 69 fragments of brain subcortical structures of 10-11-days' old chicken embryos. The nutrient medium for cultivation consisted of 35% Eagle's solution, 25% calf foetal serum, 35% Hanks' solution, 5% chicken embryonic extract. The medium was also added glucose (0.6%), insulin (0.5 unit/ml), penicillin (100 unit/ml), glutamine (2 mM). Fragments of the brain subcortical structures were placed in this medium and cultivated in Petri's dishes in a thermostat at 36.7° C. for 48 hours. The experimental medium was added Ala-Glu-Asp-Gly tetrapeptide and Epithalamin in the concentrations of 2, 10, 20, 50, 100, 200, 400 ng/ml. Square index (SI) considered the criterion of biological activity. It was counted as the ratio between the total explant square including the growth zone and the initial square of the subcortical structure fragment Significance of differences between the average values of SI was assessed by Student's t-criterion. ST values were expressed percent, the control SI value being taken for 100%.
The growth zone of the control explants of the brain, subcortical structures included short neurites, migrating glia and fibroblast-resembling cells.
Immediate influence of the substances upon the fragments of the brain subcortical structures was investigated in the following experimental series.

cerebral cortex explants = test: Growth of cerebral cortex explants (square index, organotypic culture); type: cell-based, chicken embryos
Description: The experiments are conducted on 73 fragments of cerebral cortex explants of 10-11-days' chicken embryos. The nutrient medium for cultivation consisted of 35% Eagle's solution, 25% calf foetal serum, 35% Hanks' solution, 5% chicken embryonic extract. The medium was also added glucose (0.6%), insulin (0.5 unit/ml), penicillin (100 unit/ml), glutamine (2 mM). Fragments of the cerebral cortex were placed in this medium and cultivated in Petri's dishes in a thermostat at 36.7° C. for 48 hours. The experimental medium is was added Ala-Glu-Asp-Pro tetrapeptide and Cortexin in the concentrations of 2, 10, 20, 50, 100, 200, 400 ng/ml. Square index (SI) was considered the criterion of biological activity. It was counted as the ratio between the total explant square including the growth zone and the initial square of the cerebral cortex fragment and. Significance of differences between the average values of SI was assessed by Student's t-criterion. SI values were expressed per cent, the control SI value being taken for 100%.
The growth zone of the control cerebral cortex explants included short neurites, migrating glia and fibroblast cells.
Immediate influence of the substances upon the cerebral cortex fragments was investigated in the following experimental series.

liver explants = test: Growth of liver explants (square index, organotypic culture); type: cell-based, chicken embryos; conditions: 20 ng/ml
Description: The experiments were carried out in 53 liver fragments of 10-11 days old chicken embryos. Nutrient medium for the explant cultivation consisted of 35% of Eagle's solution, 25% of foetal calf serum, 35% of Hank's solution and 5% of chicken embryonic extract. The mixture is added glucose (0.6%), insulin (0.5 unit/ml), penicillin (100 unit/m) and glutamine (2 mM). […] Lys-Glu-Asp-Ala tetrapeptide was added to the experimental medium in the concentrations of 2, 10, 20, 50, 100, 200 and 400 ng/mL Square index (SI) was taken for a biological activity criterion and calculated as a correlation of the total explant square including the growth zone to the initial square of a liver fragment. The SI values were expressed percent, the control SI value taken for 100%.

[2] = system: monolayer hepatocyte culture; test: Intensity of protein synthesis ([3H]-leucin inclusion) in monolayer hepatocyte culture; type: cell-based, rats; conditions: 0.005 μg/ml, 4 hours
Description: Intensity of the protein synthesis was investigated in the hepatocyte culture of rats aged 4, 8 and 18 months.
To isolate hepatocytes, rat liver was perfused with calcium-free Hanks' solution added 0.5 mM of EDTA and then 0.05% collagenase solution in Medium 199. The cellular suspension was filtered out and centrifuged. The hepatocyte suspension in the concentration of 5×10^5 was introduced into Petri's dishes, their bottoms surfaced with collagen-covered glass. Applied Medium 199 contained no bovine serum but was added 0.2 mg/ml of albumen and 5 μg/ml of insulin. The dishes with glass-covered bottoms were placed in a thermostat at 37° C., aerated and added CO2. […]
Protein synthesis was assessed by [^3H]-leucin inclusion regarding the standard errors for a free marked leucin pull in the same culture. […] Radioactivity of the pull of free intracellular leucin and cellular proteins (in hyamine fraction) after adding the corresponding scintillators was measured on a radioactivity counter SL-30.
The intensity of protein synthesis was calculated by the formula Icorr=Ii×Pav/Pi(cpm), where
Icorr—inclusion of leucin regarding the standard errors of free leucin pull, Ii—measured radioactivity of the proteins for i-culture, Pav—mean radioactivity of proteins and pull for the cultures studied in this experiment, Pi—total radioactivity of proteins and pull of the same culture. […]

C[C@H](N)C(=O)N[C@@H](CCC(=O)O)C(=O)N[C@@H](CC(=O)O)C(=O)NCC(=O)O [Ala-Glu-Asp-Gly tetrapeptide, alanyl-glutamyl-aspartyl-glycine] (H-AEDG-OH)
SI of the experimental explants higher than that of the control fragments [1]: 24%

C[C@H](N)C(=O)N[C@@H](CCC(=O)O)C(=O)N[C@@H](CC(=O)O)C(=O)N1CCC[C@H]1C(=O)O [Ala-Glu-Asp-Pro tetrapeptide, L-alanyl-L-glutamyl-L-aspartyl-L-proline] (H-AEDP-OH)
SI of the experimental explants higher than that of the control cerebral cortex fragments (cerebral cortex explants; 20 ng/ml, control SI = 100%): 40±7%
concentration stimulating the fragments of cultivated cerebral cortex (threshold of effective concentrations) (cerebral cortex explants; tested 2-400 ng/ml): 20 ng/mL

C[C@H](NC(=O)[C@H](CC(=O)O)NC(=O)[C@H](CCC(=O)O)NC(=O)[C@@H](N)CCCCN)C(=O)O [Lys-Glu-Asp-Ala tetrapeptide, lysyl-glutamyl-aspartyl-alanine] (H-KEDA-OH)
effect on liver explants by longer terms of cultivation (liver explants; cultivation up to 7 days): analogous stimulating effect
increase in the explant SI as compared to the control value (liver explants; third day of the cultivation, control SI = 100%): 24%
amplitude of synthesis oscillations ([2]; hepatocytes of older rats): increased considerably
level of protein synthesis in hepatocytes ([2]; hepatocytes of rats aged 4, 8 and 18 months, strongest effect in cells of older animals): raised the level of protein synthesis
